Reference: patent publication US9744212B2, “Galectin-3C combination therapy for human cancer” (Texas Tech University System, priority 2011, dated 2017)

Columns and labels:
HUVEC [1] = experiment: Vascular endothelial cell viability assay; assay type: cell-based, human
Description: FIGS. 4A and 4B are graphs of the data from the vascular endothelial cell viability assay. […] The graphs show mean values and error bars represent 95% C.I. **=ANOVA Tukey's post test p<O.Ol. n.s.=not significant. […] Viability was measured as described for the U266 cells. […] Results obtained from the HUVEC viability studies that were run in triplicate are depicted in FIGS. 4A-B, and are presented as a percentage of control (untreated) cells.
EXAMPLE 3 illustrates Gal-3C inhibits proliferation of MM cells. Cell Proliferation (Viability) Assays. Cell proliferation was assessed with a ViaLight Plus Cell Proliferation and Cytotoxicity BioAssay Kit (Lonza, Walkersville, Md., USA) according to the directions of the manufacturer. In brief, myeloma cells were seeded (8,000 per well) in 50 μL of RPMI-1640 with 10% heat-inactivated FBS (growth medium) in 96-well plates. HUVEC cells were seeded (10,000/well) in 50 μl EGM-2 medium in 96-well plates. Gal-3C (2× concentration) in 50 μL of growth medium was added to triplicate wells and the plate kept at the CO2 incubator at 37° C. for 48 hour. For the ViaLight assay, 50 μL of lysis buffer was added to each well, the plate was incubated for 10 minutes, after which 50 μL of cell lysate from each well was transferred to a solid white Lumitrac-200 plate and 50 μL of reconstituted AMR Plus was added. Luminescence was measured with a 1-s integrated setting in a Berthold luminometer after 2 minutes. With Alamar Blue, 10 μL of reagent was added per well and the plate kept in the CO2 incubator for 4 hours. Fluorescence intensity was measured at 590-nm on a Polarstar Galaxy (BMG Labtech, Cary, N.C.) microplate reader. The blank (growth media with 10 μl Alamar Blue) was subtracted from the raw fluorescence to obtain adjusted fluorescence readings. Triplicate data points were analyzed and the data shown are representative of 3 or more studies.

HUVEC [2] = experiment: HUVEC tubule formation assay on Matrigel with U266 conditioned media; assay type: cell-based, human; settings: 20% V/V conditioned medium of U266 treated 48 h with 10 μg/mL Gal-3C, 5 nM Bor or both; 16-hour incubation
Description: HUVEC Tubule Formation Assay. A tubule formation assay was performed in vitro as described (86) to measure angiogenesis. Briefly, growth factor-reduced Matrigel (Becton Dickinson) was allowed to polymerize in the presence of 30 ng/mL recombinant basic fibroblastic growth factor (bFGF; R&D Systems) for 1 hour at 37° C.
FIG. 5 is an image of the results from the In vitro tubule formation assay having 6 regions. Serum-starved HUVEC were allowed to form tubules on a […]™ surface in the presence of VEGF (positive control), EMB-2 medium alone (negative control), or EBM-2 supplemented with 20% V/V U266 conditioned media (c.m.). […] To evaluate the effect of different treatments on the ability of U266 cells to induce angiogenesis, a […]™-based tubule formation assay was performed in the presence of U266 conditioned media as described for the chemotaxis assay. Serum-starved (5×103) HUVEC were seeded on the […]™ surface in 200-μL EBM-2 medium supplemented with 20% V/V conditioned medium. Pictures were taken after 16-hour incubation in 5% CO2 at 37° C. The assay was run in triplicate and representative images are depicted in FIG. 5. As a positive control, EBM-2 medium supplemented with 20 ng/mL VEGF was used.

VEGF = experiment: ELISA of VEGF in U266 cell-conditioned medium; assay type: cell-based, human; settings: 48-hour culture with 10 μg/mL Gal-3C, 5 nM Bor or both
Description: (§1) ELISA of VEGF and bFGF Levels. The levels of VEGF and bFGF were measured by direct ELISA as follows. Flat-bottom 96-well polycarbonate plates were coated at 4° C. with 50 μL/well cell culture supernatants diluted 1:25 in carbonate coating buffer (0.1 M NaHCO3, […]) at 4° C. overnight. Standard curves were obtained with purified recombinant human VEGF and bFGF (both from R&D Systems) serially diluted in coating buffer (10-fold serial dilutions from 1,000 to 0 ng/mL). After removing diluted supernatants or standards, and blocking with PBS supplemented with 1% W/V BSA for 1 hour at room temperature, plates were incubated for 1 hour at room temperature with mouse anti-human VEGF or rabbit anti-human bFGF primary antibodies (2 μg/mL in PBS, 50 μL/well Abeam, Mass., USA). Then, plates were washed twice with PBS with 0.025% V/V Tween-20 (300 μL/well) and incubated at room temperature with anti-mouse or anti-rabbit HRP-labeled secondary antibodies (0.2 μg/mL in PBS, 50 μL/well Abeam, Mass., USA) for 1 hour. The plates were washed thrice with PBS containing 0.025% V/V Tween-20 (300 μL/well), the TMB colorimetric substrate (Thermo Fisher Scientific, Waltham, Mass., USA) was added, and after 5 minutes the absorbance was measured (0.1 s) at 450 nm on a Victor 2 multimodal microplate reader (PerkinElmer, Billerica, Mass., USA). All samples were run in triplicates. […]

bFGF = experiment: ELISA of bFGF in U266 cell-conditioned medium; assay type: cell-based, human; settings: 48-hour culture with 10 μg/mL Gal-3C, 5 nM Bor or both
Description: as §1

AKT/IKK pathway = experiment: Western blot of proteins in the NF-κB AKT/IKK pathway; assay type: cell-based; settings: U266 and primary human MM cells; Gal-3C 10 μg/ml
Description: EXAMPLE 4 indicates Gal-3C impairs NF-kB activation induced by Bonin U266 cells. Recently, it has been shown that the mechanism of action of Boris more complex than originally thought and can be differ depending on the cell type. […] This effect potentially reduces the therapeutic effect of Bonin MM, because NF-kB activation in plasma cells is associated with anti-apoptotic pathways (91). […] Comparison of NFkB expression by Western blot. […] Equal amounts of lysates of human primary MM and U266 cells and media were fractionated by SDS-PAGE and transferred to nitrocellulose membranes. Primary antibodies were visualized with HRP-coupled goat anti-rabbit or anti-mouse IgGs using an ATK/IKK kit (Cell Signaling Technology, Danvers, Mass.).
Upon IKK-mediated phosphorylation, IKBα dissociates from the NF-kB complex (p50 and p65 proteins). Free NF-kB is then phosphorylated on serine 529 of the p65 subunit and enters the nucleus where it regulates gene transcription.

[3] = test system: NF-kB (serine 529 phosphorylated p65 subunit); experiment: Quantification of NF-kappaB activation by flow cytometry in U266 cells; assay type: cell-based, human; settings: 48 hours
Description: Quantification of NF-kappaB Activation by Flow Cytometry. For measurement of NF-kB activation, 200×10^3 cells were fixed with 2% PFA in ice-cold PBS for 30 minutes. After removal of PFA, cells were permeabilized with 0.3% saponin in PBS on ice for 15 minutes, then washed and resuspended in 50 μL PBS supplemented with 1% BSA. PE-labeled anti-phosphorylated serine 529 p65 antibody (BD Biosciences, San Jose, Calif., USA) or isotype control (final dilution, 1:20) and allowed to incubate on ice in the dark for 30 minutes. Before flow-cytometric analysis cells were washed 3 times in 1-mL cold PBS with 1% BSA.
FIG. 8A is a dot-plot of NF-kB activation in U266 cells. After 48 hours in the presence of indicated treatments, the levels of active NF-KB (serine 529 phosphorylated p65 subunit) were evaluated in U266 cells by flow cytometry.

CC(C)C[C@H](NC(=O)[C@H](Cc1ccccc1)NC(=O)c1cnccn1)B(O)O [Bor, bortezomib, reference compound]
effect on HUVEC viability (HUVEC [1]; Bor at the concentration used in HUVEC assays, combined with different concentrations of Gal-3C): did not display any effect
effect on HUVEC viability (HUVEC [1]; at the concentration used in the chemotaxis and angiogenesis assays (Gal-3C 2 μg/ml, Bor 1 nM), 48 h): had an effect only at a concentration 5-fold higher
effect on HUVEC viability (HUVEC [1]; at the highest concentrations, 48 h): dramatic inhibition
potential of U266 cells for induction of angiogenesis (tubule formation) (HUVEC [2]): almost completely impaired
VEGF levels in U266 conditioned medium (VEGF): significantly reduced
bFGF levels in U266 conditioned medium (bFGF): significantly reduced
P-p65, P-Akt, P-IKKβ and P-IKKα (activation of the AKT/IKK pathway) (AKT/IKK pathway): increased
NF-kB activation (phosphorylated active form) [3]: activated NF-kB incrementally
